Experimental findings from patent publication US20040224958A1, “Pyridopyrimidinone derivatives for treatment of neurodegenerative disease” (priority 2000, published 2004) are described below.

Structures are written as SMILES.

For assay [1], the target named is cdk4/D (Homo sapiens, UniProt P11802). As to the kind of experiment: Cyclin-Dependent Kinase 4 (cdk4) Assay. The format is biochemical. As to conditions: read-out: cdk4/D IC50.
Assay [2] deals with cdk2/cyclinE (Homo sapiens, UniProt P24941). As to the kind of experiment: Cyclin-Dependent Kinase Assay cdk2/cyclinE. As to conditions: cdk2/E IC50.
The target in assay [3] is cdc2/cyclinB (Homo sapiens, UniProt P06493). Briefly: Cyclin-Dependent Kinase Assay cdc2/cyclinB.
Assay [4] concerns the target cdk2/cyclinA (Homo sapiens, UniProt P24941). Briefly: Cyclin-Dependent Kinase Assay cdk2/cyclinA. As to conditions: cdk2/A IC50.
In assay [5] the target is Cdk5/p25 (Homo sapiens, UniProt Q00535). As to the kind of experiment: Cyclin-Dependent Kinase 5 High Throughput Screening (cdk5-HTS) Assay. It counts as biochemical. As to conditions: high throughput screen. In a few lines:
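IC50 determined from 33P incorporation into GST-RbCOOH captured on glutathione plates and read by scintillation counting. Reaction: 1.0 μg/mL Cdk5/p25, 20 μM [γ33P]ATP, pH 7.4 Tris buffer with MgCl2 and DTT, 30 min at room temperature, stopped with EDTA.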

cdc2/cyclinB, sequence (P06493 whole entry): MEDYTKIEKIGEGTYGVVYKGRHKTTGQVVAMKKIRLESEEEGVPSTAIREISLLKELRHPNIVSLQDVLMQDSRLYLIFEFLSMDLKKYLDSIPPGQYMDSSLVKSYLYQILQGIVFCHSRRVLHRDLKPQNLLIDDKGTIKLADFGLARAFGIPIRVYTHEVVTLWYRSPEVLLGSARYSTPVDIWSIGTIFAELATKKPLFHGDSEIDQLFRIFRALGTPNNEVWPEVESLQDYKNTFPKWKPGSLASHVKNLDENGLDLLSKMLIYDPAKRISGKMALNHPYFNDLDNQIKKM
cdc2/cyclinB, sequence (P14635 whole entry, further chain): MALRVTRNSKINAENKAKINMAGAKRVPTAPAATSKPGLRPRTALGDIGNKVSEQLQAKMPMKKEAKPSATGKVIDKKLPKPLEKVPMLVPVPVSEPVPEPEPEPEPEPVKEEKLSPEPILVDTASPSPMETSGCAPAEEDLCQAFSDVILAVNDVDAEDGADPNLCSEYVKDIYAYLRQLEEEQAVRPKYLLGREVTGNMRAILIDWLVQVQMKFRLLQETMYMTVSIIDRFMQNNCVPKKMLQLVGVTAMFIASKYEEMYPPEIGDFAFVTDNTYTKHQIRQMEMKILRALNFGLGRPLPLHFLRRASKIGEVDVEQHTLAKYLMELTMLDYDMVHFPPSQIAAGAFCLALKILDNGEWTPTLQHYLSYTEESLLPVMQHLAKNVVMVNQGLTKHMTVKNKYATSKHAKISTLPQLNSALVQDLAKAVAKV
cdk4/D, sequence (P11802 whole entry): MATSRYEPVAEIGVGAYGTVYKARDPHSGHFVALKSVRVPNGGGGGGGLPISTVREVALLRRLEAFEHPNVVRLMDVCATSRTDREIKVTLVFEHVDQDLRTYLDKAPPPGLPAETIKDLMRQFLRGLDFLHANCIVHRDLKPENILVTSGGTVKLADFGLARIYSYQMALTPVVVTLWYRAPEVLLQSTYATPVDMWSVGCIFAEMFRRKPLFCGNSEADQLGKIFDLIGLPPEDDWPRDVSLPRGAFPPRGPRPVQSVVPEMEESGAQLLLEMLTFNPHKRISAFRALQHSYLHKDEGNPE
cdk4/D, sequence (P24385 whole entry, further chain): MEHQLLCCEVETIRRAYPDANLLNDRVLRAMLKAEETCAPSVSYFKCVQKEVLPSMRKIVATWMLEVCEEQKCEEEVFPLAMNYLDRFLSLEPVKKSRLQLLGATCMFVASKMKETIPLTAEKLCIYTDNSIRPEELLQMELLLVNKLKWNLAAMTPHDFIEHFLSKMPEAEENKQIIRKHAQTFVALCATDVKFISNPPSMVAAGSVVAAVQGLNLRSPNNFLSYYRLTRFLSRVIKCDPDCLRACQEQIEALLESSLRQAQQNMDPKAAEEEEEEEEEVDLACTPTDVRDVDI

Consider `Cc1ccc(Nc2ncc3ccc(=O)n(C4CCCC4)c3n2)cc1Cl` [Example 545, 2-(3-Chloro-4-methyl-phenylamino)-8-cyclopentyl-8H-pyrido[2,3-d]pyrimidin-7-one], for which the IC50 in assay [1] stood at 55 nM; in assay [2] it was 140 nM; in assay [3], 180 nM; in assay [4], 310 nM; in assay [5] it was 25 nM.

As to `O=c1ccc2cnc(Nc3ccc(Cl)c(C(F)(F)F)c3)nc2n1C1CCCC1` [Example 546, 2-(4-Chloro-3-trifluoromethyl-phenylamino)-8-cyclopentyl-8H-pyrido[2,3-d]pyrimidin-7-one], the IC50 in assay [1] worked out at 1390 nM; in assay [2] it was 415 nM; in assay [3] it was 555 nM; in assay [4], 1340 nM; in assay [5], 64 nM.

Take `NS(=O)(=O)c1cccc(Nc2ncc3ccc(=O)n(C4CCCC4)c3n2)c1` [Example 547, 3-(8-Cyclopentyl-7-oxo-7,8-dihydro-pyrido[2,3-d]pyrimidin-2-ylamino)-benzenesulfonamide]: the IC50 turned out to be 54 nM in assay [1]; 110 nM in assay [2]; 300 nM in assay [3]; 590 nM in assay [4]; 66 nM in assay [5].

On to `O=c1ccc2cnc(Nc3cc(F)cc(F)c3)nc2n1C1CCCC1` [Example 548, 8-Cyclopentyl-2-(3,5-difluoro-phenylamino)-8H-pyrido[2,3-d]pyrimidin-7-one], for which the IC50 in assay [1] turned out to be 180 nM; in assay [2] it was 180 nM; in assay [3], 290 nM; in assay [4] it was 200 nM; in assay [5], 99 nM.

In the case of `Cc1ccc(Nc2ncc3ccc(=O)n(C4CCCC4)c3n2)cc1C` [Example 549, 8-Cyclopentyl-2-(3,4-dimethyl-phenylamino)-8H-pyrido[2,3-d]pyrimidin-7-one], the IC50 in assay [1] worked out at 70 nM; in assay [2] it was 290 nM; in assay [3] it was 200 nM; in assay [4] it was 190 nM; in assay [5], 59 nM.

As to `O=c1ccc2cnc(Nc3ccc(O)c(CN4CCOCC4)c3)nc2n1C1CCCC1` [Example 550, 8-Cyclopentyl-2-(4-hydroxy-3-morpholin-4-ylmethyl-phenylamino)-8H-pyrido[2,3-d]pyrimidin-7-one], the IC50 came to 310 nM in assay [1]; 110 nM in assay [2]; 510 nM in assay [3]; 200 nM in assay [4]; 190 nM in assay [5].

Take `O=c1ccc2cnc(Nc3ccc(O)c([N+](=O)[O-])c3)nc2n1C1CCCC1` [Example 551, 8-Cyclopentyl-2-(4-hydroxy-3-nitro-phenylamino)-8H-pyrido[2,3-d]pyrimidin-7-one]: the IC50 in assay [1] was 290 nM; in assay [2], 16 nM; in assay [3], 36 nM; in assay [4] it was 14 nM; in assay [5] it was 55 nM.

With `CC1Nc2ccc(Nc3ncc4ccc(=O)n(C5CCCC5)c4n3)cc2C1C` (stereo not shown) [Example 552, 8-Cyclopentyl-2-(2,3-dimethyl-2,3-dihydro-1H-indol-5-ylamino)-8H-pyrido[2,3-d]pyrimidin-7-one], the IC50 in assay [1] was found to be 180 nM; in assay [2], 150 nM; in assay [3], 48 nM; in assay [4], 210 nM; in assay [5], 54 nM.

For `O=c1[nH]c2cc(Nc3ncc4ccc(=O)n(C5CCCC5)c4n3)ccc2o1` [Example 554, 8-Cyclopentyl-2-(2-oxo-2,3-dihydro-benzoxazol-5-ylamino)-8H-pyrido[2,3-d]pyrimidin-7-one], the IC50 in assay [1] was determined as 230 nM; in assay [2], 152 nM; in assay [3], 169 nM; in assay [4], 148 nM; in assay [5], 32 nM.

For `Cc1ccc(Nc2ncc3ccc(=O)n(C4CCCC4)c3n2)cc1NS(C)(=O)=O` [Example 555, N-[5-(8-Cyclopentyl-7-oxo-7,8-dihydro-pyrido[2,3-d]pyrimidin-2-ylamino)-2-methyl-phenyl]-methanesulfonamide], the IC50 in assay [1] was determined as 69 nM; in assay [2], 99 nM; in assay [3] it was 220 nM; in assay [4] it was 160 nM; in assay [5], 60 nM.

As to `O=C1CSc2ccc(Nc3ncc4ccc(=O)n(C5CCCC5)c4n3)cc2N1` [Example 556, 8-Cyclopentyl-2-(3-oxo-3,4-dihydro-2H-1,4-benzothiazin-6-ylamino)-8H-pyrido[2,3-d]pyrimidin-7-one], the IC50 in assay [1] was 19 nM; in assay [2], 40 nM; in assay [3], 30 nM; in assay [4] it was 16 nM; in assay [5], 9 nM.

Take `CC(=O)Nc1cc(Nc2ncc3ccc(=O)n(C4CCCC4)c3n2)ccc1C` [Example 558, N-[5-(8-Cyclopentyl-7-oxo-7,8-dihydro-pyrido[2,3-d]pyrimidin-2-ylamino)-2-methyl-phenyl]-acetamide]: the IC50 in assay [1] was determined as 30 nM; in assay [2], 280 nM; in assay [3], 510 nM; in assay [4], 340 nM; in assay [5] it was 220 nM.

Turning to `Cc1cc(Nc2ncc3ccc(=O)n(C4CCCC4)c3n2)cc(C)c1O` [Example 559, 8-Cyclopentyl-2-(4-hydroxy-3,5-dimethyl-phenylamino)-8H-pyrido[2,3-d]pyrimidin-7-one], the IC50 was found to be 270 nM in assay [1]; 91 nM in assay [2]; 82 nM in assay [3]; 87 nM in assay [4]; 94 nM in assay [5].

Turning to `O=C(O)c1cc(Nc2ncc3ccc(=O)n(C4CCCC4)c3n2)ccc1O` [Example 560, 5-(8-Cyclopentyl-7-oxo-7,8-dihydro-pyrido[2,3-d]pyrimidin-2-ylamino)-2-hydroxy-benzoic acid], the IC50 was determined as 910 nM in assay [1]; 370 nM in assay [2]; 450 nM in assay [3]; 220 nM in assay [4]; 490 nM in assay [5].

As for `Cc1cc(Nc2ncc3ccc(=O)n(C4CCCC4)c3n2)ccc1Br` [Example 562, 2-(4-Bromo-3-methyl-phenylamino)-8-cyclopentyl-8H-pyrido[2,3-d]pyrimidin-7-one], the IC50 in assay [1] is 160 nM; in assay [2], 140 nM; in assay [3], 47 nM; in assay [4], 56 nM; in assay [5], 50 nM.

With `O=c1ccc2cnc(Nc3ccc4[nH]ccc4c3)nc2n1CC1CC1` [Example 563, 8-Cyclopropylmethyl-2-(1H-indol-5-ylamino)-8H-pyrido[2,3-d]pyrimidin-7-one], the IC50 in assay [1] came out at 87 nM; in assay [2], 103 nM; in assay [3] it was 156 nM; in assay [4] it was 320 nM; in assay [5], 86.5 nM.

With `O=c1ccc2cnc(Nc3ccc4[nH]nnc4c3)nc2n1CC1CC1` [Example 564, 2-(1H-Benzotriazol-5-ylamino)-8-cyclopropylmethyl-8H-pyrido[2,3-d]pyrimidin-7-one], the IC50 amounted to 505 nM in assay [1]; 50 nM in assay [2]; 94.5 nM in assay [3]; 117 nM in assay [4]; 52 nM in assay [5].

As to `CC(C)(C)OC(=O)Nc1ccc(Nc2ncc3ccc(=O)n(CC4CC4)c3n2)cc1` [Example 565, [4-(8-Cyclopropylmethyl-7-oxo-7,8-dihydro-pyrido[2,3-d]pyrimidin-2-ylamino)-phenyl]-carbamic acid tert-butyl ester], the IC50 in assay [1] was 385 nM; in assay [2], 193 nM; in assay [3] it was 365 nM; in assay [4], 510 nM; in assay [5], 290 nM.

As to `O=c1ccc2cnc(Nc3ccc(O)cc3F)nc2n1CC1CC1` [Example 566, 8-Cyclopropylmethyl-2-(2-fluoro-4-hydroxy-phenylamino)-8H-pyrido[2,3-d]pyrimidin-7-one], the IC50 in assay [1] stood at 855 nM; in assay [2] it was 187 nM; in assay [3] it was 445 nM; in assay [4], 615 nM; in assay [5], 255 nM.

With `O=c1ccc2cnc(Nc3ccc(O)c(Cl)c3)nc2n1CC1CC1` [Example 567, 2-(3-Chloro-4-hydroxy-phenylamino)-8-cyclopropylmethyl-8H-pyrido[2,3-d]pyrimidin-7-one], the IC50 came to 145 nM in assay [1]; 16.3 nM in assay [2]; 76 nM in assay [3]; 54.5 nM in assay [4]; 31.5 nM in assay [5].

Take `O=c1ccc2cnc(Nc3cc(Cl)c(O)c(Cl)c3)nc2n1CC1CC1` [Example 568, 8-Cyclopropylmethyl-2-(3,5-dichloro-4-hydroxy-phenylamino)-8H-pyrido[2,3-d]pyrimidin-7-one]: the IC50 in assay [1] is 920 nM; in assay [2] it was 43 nM; in assay [3], 101 nM; in assay [4], 102 nM; in assay [5], 102 nM.

As to `COc1cc(Nc2ncc3ccc(=O)n(CC4CC4)c3n2)cc(OC)c1OC` [Example 569, 8-Cyclopropylmethyl-2-(3,4,5-trimethoxy-phenylamino)-8H-pyrido[2,3-d]pyrimidin-7-one], the IC50 in assay [1] is 3500 nM; in assay [2], 260 nM; in assay [3] it was 560 nM; in assay [4], 1600 nM; in assay [5], 310 nM.

In the case of `O=c1ccc2cnc(Nc3ccc(F)c(C(F)(F)F)c3)nc2n1CC1CC1` [Example 570, 8-Cyclopropylmethyl-2-(4-fluoro-3-trifluoromethyl-phenylamino)-8H-pyrido[2,3-d]pyrimidin-7-one], the IC50 in assay [1] worked out at 680 nM; in assay [2] it was 63 nM; in assay [3] it was 170 nM; in assay [4], 430 nM; in assay [5] it was 50 nM.
